These are literature values, as cited in patent publication US7491730B2, “Compositions useful as inhibitors of GSK-3” (Vertex Pharmaceuticals Incorporated, priority 2002, dated 2009).

This series addresses gamma secretase. The note with it: vendor value, Calbiochem catalog #565771; read-out: reported IC50.

The structures appear in SMILES notation.

On to `CC(C)C[C@H](NC(=O)[C@H](Cc1ccccc1)C[C@@H](O)[C@H](Cc1ccccc1)NC(=O)OC(C)(C)C)C(=O)N[C@@H](Cc1ccccc1)C(N)=O` [Inhibitor X], for which the IC50 is 0.05 µM.

Broadly, the IC50 is the point on the concentration scale where inhibition reaches its midpoint.
